Laboratory results taken from ChEMBL document CHEMBL1201862, “PubChem BioAssay data set” (2004).
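The compound was tested at five concentrations on cells cultured in 96-well plates, with a 48-hour exposure period. GI50 is the concentration that inhibits growth by half.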 Activity calls are given as the source filed them. Rule as the data show it: active = GI50 up to about 1.1 µM and inactive = higher.

What was measured:
Assay in all cases: DTP human tumour cell line panel, 48 h
SW-620 = tested on: SW-620
SK-OV-3 = tested on: SK-OV-3
COLO 205 = tested on: COLO 205
NCI-H522 = tested on: NCI-H522
HOP-62 = tested on: HOP-62
U-251 = tested on: U-251
A498 = tested on: A498
MDA-MB-435 = tested on: MDA-MB-435
RPMI-8226 = tested on: RPMI-8226
UACC-257 = tested on: UACC-257
NCI-H23 = tested on: NCI-H23
SK-MEL-2 = tested on: SK-MEL-2
NCI/ADR-RES = tested on: NCI/ADR-RES
Malme-3M = tested on: Malme-3M
SF-539 = tested on: SF-539
KM12 = tested on: KM12
T47D = tested on: T47D
UO-31 = tested on: UO-31

Measured: GI50

Cn1c2ccccc2c(=O)c2c(O)cc3c(c21)C=CC1(CCCC1)O3
inactive: SW-620 > 100 µM | SK-OV-3 > 100 µM | COLO 205 > 100 µM | NCI-H522 > 100 µM | HOP-62 85.3 µM | U-251 > 100 µM | A498 > 100 µM | MDA-MB-435 > 100 µM | RPMI-8226 > 100 µM | UACC-257 > 100 µM | NCI-H23 68.1 µM | SK-MEL-2 > 100 µM | NCI/ADR-RES > 100 µM | Malme-3M > 100 µM | SF-539 50.5 µM | KM12 > 100 µM

O=C1N=C(S)NNC12c1ccccc1-c1ccccc12
inactive: SW-620 > 10 µM | SK-OV-3 > 10 µM | COLO 205 > 10 µM | T47D 1.98 µM | HOP-62 > 10 µM | U-251 > 10 µM | A498 3.31 µM | RPMI-8226 > 10 µM | UACC-257 > 10 µM | NCI-H23 > 10 µM | UO-31 4.81 µM | NCI/ADR-RES > 10 µM | Malme-3M > 10 µM | SF-539 > 10 µM | KM12 > 10 µM

C[n+]1c(-c2ccc(/C=N/NC(=N)N/N=C/c3ccc(-c4cn5cc(Cl)ccc5[n+]4C)cc3)cc2)cn2cc(Cl)ccc21
inactive: SW-620 > 100 µM | SK-OV-3 > 100 µM | COLO 205 > 100 µM | T47D > 100 µM | NCI-H522 > 100 µM | HOP-62 > 100 µM | U-251 > 100 µM | MDA-MB-435 > 100 µM | RPMI-8226 > 100 µM | UACC-257 > 100 µM | UO-31 69.8 µM | NCI/ADR-RES > 100 µM | SF-539 > 100 µM | KM12 > 100 µM

COc1cc2c(c(OC)c1OC)C(=O)c1c(O)cc(C)c(OC)c1C2=O
inactive: SW-620 > 100 µM | COLO 205 > 100 µM | NCI-H522 57.1 µM | HOP-62 50.7 µM | U-251 94 µM | A498 > 100 µM | MDA-MB-435 91.8 µM | RPMI-8226 > 100 µM | UACC-257 54.6 µM | NCI-H23 > 100 µM | SK-MEL-2 88.1 µM | UO-31 85.3 µM | NCI/ADR-RES 57.1 µM | Malme-3M > 100 µM | SF-539 75.5 µM | KM12 > 100 µM

Clc1cccc(Cl)c1C1SCc2nc3cc4ccccc4cc3n21 (stereo unspecified)
inactive: SW-620 > 100 µM | SK-OV-3 > 100 µM | COLO 205 > 100 µM | T47D > 100 µM | HOP-62 > 100 µM | U-251 > 100 µM | MDA-MB-435 > 100 µM | RPMI-8226 > 100 µM | UACC-257 > 100 µM | NCI-H23 > 100 µM | SK-MEL-2 > 100 µM | UO-31 > 100 µM | NCI/ADR-RES > 100 µM | Malme-3M > 100 µM | KM12 > 100 µM

Cc1ccc(S(=O)(=O)Oc2nc3nc4ccccc4nc3nc2OS(=O)(=O)c2ccc(C)cc2)cc1
inactive: SK-OV-3 > 100 µM | COLO 205 > 100 µM | NCI-H522 > 100 µM | U-251 > 100 µM | A498 > 100 µM | MDA-MB-435 > 100 µM | RPMI-8226 > 100 µM | UACC-257 > 100 µM | NCI-H23 > 100 µM | SK-MEL-2 > 100 µM | UO-31 53.7 µM | NCI/ADR-RES > 100 µM | Malme-3M > 100 µM | SF-539 > 100 µM | KM12 > 100 µM

CO/C(=N\N=C\c1ccccc1F)c1ccncc1
inactive: SW-620 > 10 µM | COLO 205 > 10 µM | T47D > 10 µM | NCI-H522 > 10 µM | HOP-62 > 10 µM | U-251 > 10 µM | MDA-MB-435 > 10 µM | RPMI-8226 > 10 µM | UACC-257 > 10 µM | NCI-H23 > 10 µM | SK-MEL-2 > 10 µM | UO-31 > 10 µM | NCI/ADR-RES > 10 µM | Malme-3M > 10 µM | KM12 > 10 µM
